Laboratory results published in ChEMBL document CHEMBL1201862, “PubChem BioAssay data set” (2004).
Calls of active or inactive are those of the source.

Columns and labels:
[1] = molecular target: T1, RNA-binding protein pos-1 (Caenorhabditis elegans, UniProt G5EF15); experiment: disruptors of C. elegans POS-1 RNA interaction – biochemical, fluorescence polarization, dose response (AID 1964);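 further: purified POS-1 fused to maltose binding protein made in E. coli; potency of compounds blocking POS-1 binding to fluorescent RNA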
T1 sequence (G5EF15 whole entry): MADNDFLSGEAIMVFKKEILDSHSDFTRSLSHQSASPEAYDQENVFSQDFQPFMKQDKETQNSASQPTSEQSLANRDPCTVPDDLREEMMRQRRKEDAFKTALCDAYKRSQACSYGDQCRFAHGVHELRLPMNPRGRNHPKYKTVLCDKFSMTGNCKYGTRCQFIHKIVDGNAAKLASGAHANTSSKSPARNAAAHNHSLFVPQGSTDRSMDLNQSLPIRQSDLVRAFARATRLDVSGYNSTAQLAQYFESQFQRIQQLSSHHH

[2] = molecular target: T2, Zinc finger protein mex-5 (Caenorhabditis elegans, UniProt Q9XUB2); experiment: potency of MEX-5 RNA-binding blockers – biochemical, C. elegans, fluorescence polarization, dose response (AID 1960)
T2 sequence (Q9XUB2 whole entry): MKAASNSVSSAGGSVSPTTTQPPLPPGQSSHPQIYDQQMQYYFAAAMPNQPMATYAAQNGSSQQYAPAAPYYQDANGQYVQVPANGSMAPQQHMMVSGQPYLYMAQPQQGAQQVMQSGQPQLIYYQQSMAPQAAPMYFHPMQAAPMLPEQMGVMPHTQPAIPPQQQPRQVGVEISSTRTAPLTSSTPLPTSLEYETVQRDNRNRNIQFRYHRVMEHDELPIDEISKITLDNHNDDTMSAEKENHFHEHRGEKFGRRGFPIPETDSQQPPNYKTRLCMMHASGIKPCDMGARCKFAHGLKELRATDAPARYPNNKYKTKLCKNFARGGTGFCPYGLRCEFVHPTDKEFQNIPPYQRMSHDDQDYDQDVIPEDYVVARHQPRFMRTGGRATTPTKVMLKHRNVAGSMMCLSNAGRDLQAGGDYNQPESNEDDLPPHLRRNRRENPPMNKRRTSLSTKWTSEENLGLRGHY

Large T antigen = Large T antigen (Simian virus 40, UniProt P03070); format: functional, Betapolyomavirus macacae;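 further: Confirmatory-stage PubChem screen for compounds that inhibit SV40 T antigen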
[3] = molecular target: Intestinal-type alkaline phosphatase (Mus musculus, UniProt P24822); experiment: PubChem AID 488785; format: functional
[4] = molecular target: T3, Alkaline phosphatase, tissue-nonspecific isozyme (Homo sapiens, UniProt P05186); experiment: TNAP enzyme inhibition by screening hits, dose response, selectivity assay for mouse IAP inhibitor project, biochemical, human TNAP, uHTS hits (AID 488906); format: functional
T3 sequence (P05186 whole entry): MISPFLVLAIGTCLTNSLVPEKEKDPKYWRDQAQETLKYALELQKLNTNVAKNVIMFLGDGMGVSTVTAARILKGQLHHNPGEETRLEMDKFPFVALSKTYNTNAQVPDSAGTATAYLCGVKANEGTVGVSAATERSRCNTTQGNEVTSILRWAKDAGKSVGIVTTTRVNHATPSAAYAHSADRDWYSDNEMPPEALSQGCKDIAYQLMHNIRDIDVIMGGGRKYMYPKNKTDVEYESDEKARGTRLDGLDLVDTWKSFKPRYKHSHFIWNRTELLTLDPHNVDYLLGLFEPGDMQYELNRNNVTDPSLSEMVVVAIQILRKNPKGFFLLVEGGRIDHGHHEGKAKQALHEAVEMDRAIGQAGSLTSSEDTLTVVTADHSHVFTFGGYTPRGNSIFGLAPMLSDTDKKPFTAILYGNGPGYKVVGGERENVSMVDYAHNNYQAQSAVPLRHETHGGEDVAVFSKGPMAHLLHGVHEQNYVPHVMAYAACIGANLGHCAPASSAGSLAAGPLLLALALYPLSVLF

[5] = molecular target: Intestinal-type alkaline phosphatase (Homo sapiens, UniProt P09923); experiment: inhibition of human intestinal alkaline phosphatase – biochemical, dose response (AID 488876); format: functional
[6] = molecular target: T4, Mannose-6-phosphate isomerase (Homo sapiens, UniProt P34949); experiment: phosphomannose isomerase inhibition – biochemical, fluorescence intensity, confirmation (AID 1535)
T4 sequence (P34949 whole entry): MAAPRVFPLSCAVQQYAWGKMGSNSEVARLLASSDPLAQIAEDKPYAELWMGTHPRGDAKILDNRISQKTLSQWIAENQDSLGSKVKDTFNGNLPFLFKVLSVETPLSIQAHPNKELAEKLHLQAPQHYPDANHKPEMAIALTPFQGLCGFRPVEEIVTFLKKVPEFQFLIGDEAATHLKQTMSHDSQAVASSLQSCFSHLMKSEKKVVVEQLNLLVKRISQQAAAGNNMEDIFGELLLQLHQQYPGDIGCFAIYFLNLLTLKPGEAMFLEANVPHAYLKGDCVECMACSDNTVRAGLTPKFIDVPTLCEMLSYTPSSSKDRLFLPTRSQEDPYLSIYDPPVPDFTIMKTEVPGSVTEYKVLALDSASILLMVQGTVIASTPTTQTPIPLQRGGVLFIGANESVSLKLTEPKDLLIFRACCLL

Phosphomannomutase 2 = Phosphomannomutase 2 (Homo sapiens, UniProt O15305); experiment: Counter screen SAR assay for PMM2 inhibitors via a fluorescence intensity assay. [Related pubchem assays (depositor defined):AID1545, AID1574]
Phosphomannomutase 2, sequence (O15305 whole entry): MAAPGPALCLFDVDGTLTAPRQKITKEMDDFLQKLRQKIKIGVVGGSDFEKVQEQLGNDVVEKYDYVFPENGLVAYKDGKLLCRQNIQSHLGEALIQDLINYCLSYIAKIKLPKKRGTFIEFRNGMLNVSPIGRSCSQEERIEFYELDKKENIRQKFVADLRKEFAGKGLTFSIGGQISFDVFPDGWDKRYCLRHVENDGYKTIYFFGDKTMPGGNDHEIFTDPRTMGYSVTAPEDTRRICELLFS

Intestinal-type alkaline phosphatase (Mus musculus, UniProt P24822), sequence (P24822 whole entry): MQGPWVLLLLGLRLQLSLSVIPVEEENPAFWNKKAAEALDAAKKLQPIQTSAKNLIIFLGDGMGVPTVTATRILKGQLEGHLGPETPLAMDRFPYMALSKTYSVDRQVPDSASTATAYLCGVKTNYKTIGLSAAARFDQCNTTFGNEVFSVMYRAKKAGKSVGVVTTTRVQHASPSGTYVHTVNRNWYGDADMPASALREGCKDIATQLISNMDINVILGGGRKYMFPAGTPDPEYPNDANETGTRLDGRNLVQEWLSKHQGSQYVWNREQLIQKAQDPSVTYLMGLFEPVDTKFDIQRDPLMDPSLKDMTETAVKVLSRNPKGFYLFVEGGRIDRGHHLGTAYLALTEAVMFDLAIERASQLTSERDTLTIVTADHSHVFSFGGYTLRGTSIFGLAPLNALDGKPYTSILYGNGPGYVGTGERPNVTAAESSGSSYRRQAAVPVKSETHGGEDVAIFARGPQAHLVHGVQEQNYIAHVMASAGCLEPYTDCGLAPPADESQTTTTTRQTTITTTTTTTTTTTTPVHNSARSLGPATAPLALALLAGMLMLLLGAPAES
Intestinal-type alkaline phosphatase (Homo sapiens, UniProt P09923), sequence (P09923 whole entry): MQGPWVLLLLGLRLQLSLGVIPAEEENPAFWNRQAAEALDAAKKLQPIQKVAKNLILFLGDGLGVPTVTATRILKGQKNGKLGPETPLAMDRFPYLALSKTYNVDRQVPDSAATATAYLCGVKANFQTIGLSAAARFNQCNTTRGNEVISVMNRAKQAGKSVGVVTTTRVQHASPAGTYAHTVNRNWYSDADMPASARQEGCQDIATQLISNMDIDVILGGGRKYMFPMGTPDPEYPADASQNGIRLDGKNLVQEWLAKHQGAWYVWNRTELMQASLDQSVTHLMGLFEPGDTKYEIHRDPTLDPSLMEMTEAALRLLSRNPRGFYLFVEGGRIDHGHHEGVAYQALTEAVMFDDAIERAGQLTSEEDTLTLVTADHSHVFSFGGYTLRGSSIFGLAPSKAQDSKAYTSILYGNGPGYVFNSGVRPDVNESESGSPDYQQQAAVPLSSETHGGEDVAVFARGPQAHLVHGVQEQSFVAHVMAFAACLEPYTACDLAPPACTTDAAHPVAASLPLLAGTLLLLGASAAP
Large T antigen, sequence (P03070 whole entry): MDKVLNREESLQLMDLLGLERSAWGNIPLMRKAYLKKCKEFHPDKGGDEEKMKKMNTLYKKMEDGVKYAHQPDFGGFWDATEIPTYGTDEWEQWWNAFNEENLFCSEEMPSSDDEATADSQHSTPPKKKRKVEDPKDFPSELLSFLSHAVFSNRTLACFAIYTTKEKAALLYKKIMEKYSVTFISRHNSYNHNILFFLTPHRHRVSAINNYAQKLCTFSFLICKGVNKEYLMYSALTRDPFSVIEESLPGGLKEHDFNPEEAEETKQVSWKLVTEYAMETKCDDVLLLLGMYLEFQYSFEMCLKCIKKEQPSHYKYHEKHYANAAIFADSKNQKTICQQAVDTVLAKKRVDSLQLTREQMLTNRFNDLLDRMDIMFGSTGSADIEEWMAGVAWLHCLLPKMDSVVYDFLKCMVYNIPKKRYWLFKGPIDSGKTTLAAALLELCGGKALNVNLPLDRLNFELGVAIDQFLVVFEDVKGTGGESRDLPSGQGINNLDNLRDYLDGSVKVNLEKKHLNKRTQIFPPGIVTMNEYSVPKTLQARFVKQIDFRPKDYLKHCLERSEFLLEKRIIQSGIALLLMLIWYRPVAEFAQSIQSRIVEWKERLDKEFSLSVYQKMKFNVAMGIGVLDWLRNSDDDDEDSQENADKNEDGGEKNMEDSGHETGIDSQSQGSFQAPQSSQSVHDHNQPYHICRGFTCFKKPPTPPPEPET

Row | EC50 [1] | EC50 [2] | IC50 (Large T antigen) | IC50 [3] | IC50 [4] | IC50 [5] | IC50 [6] | IC50 (Phosphomannomutase 2) | Compound
1 | > 300 µM (not active) | 26.8 µM (active) | 39.6 µM (active) | 6 µM (active) | > 100 µM (inactive) | > 100 µM (inactive) | – | – | O=C1CNC(=S)N1CCc1ccc(O)c(O)c1
2 | – | – | – | – | – | – | 49.9 µM (active) | > 100 µM (inactive) | COc1ccc(C)c(/N=c2\ssnc2Cl)c1
